From patent US20250170126A1 (MITSUBISHI TANABE PHARMA CORPORATION, priority 2022, published 2025)

Target: Human B0AT1 (Homo sapiens (Human), UniProt Q695T7)
Experiment: hB0AT1 inhibitory test (phenylalanine uptake)
Format: cell-based
Conditions: Human B0AT1 stable expression CHO cells; [3H]-L-phenylalanine uptake, phenylalanine 0.25 mM
Protocol: A test compound dissolved in dimethyl sulfoxide (DMSO) was added to a 96 well plate for solid phase radioactivity measurement containing a scintillator at the bottom of the well (final concentration of DMSO 0.5%). DMSO alone as a control and DMSO containing N-(4-bromophenyl)-3,5-dichloro-2-hydroxybenzamide (final concentration […]) for the is measurement of B0AT1 non-specific uptake were similarly added at 0.5 μL per well. Human B0AT1 stable expression CHO cells suspended in a buffer (buffer containing 96 mM sodium chloride, 2 mM potassium chloride, 1.8 mM calcium chloride, 1 mM magnesium chloride, 0.01% bovine serum albumin, and 10 mM 2-[4-(2-hydroxyethyl)-1-piperazinyl]ethanesulfonic acid) were added by 90 μL to 75000 cells/well. After standing at ordinary temperature for 30 min or longer, the cells were subjected to a phenylalanine uptake experiment. A buffer containing L-phenylalanine and [3,4,5-3H]-L-phenylalanine was added by 10 μL per well (final concentration of phenylalanine 0.25 mM), and the radioactivity of the plate bottom surface at ordinary temperature was measured with a scintillation counter over time, and the radioactivity value after 100 to 200 min was analyzed. A value obtained by subtracting the B0AT1 non-specific uptake from the control uptake was taken as 100%, and the concentration necessary for each test compound to achieve 50% inhibition (IC50 value) was determined by nonlinear regression using a logistic model.

Human B0AT1, sequence (Q695T7 whole entry): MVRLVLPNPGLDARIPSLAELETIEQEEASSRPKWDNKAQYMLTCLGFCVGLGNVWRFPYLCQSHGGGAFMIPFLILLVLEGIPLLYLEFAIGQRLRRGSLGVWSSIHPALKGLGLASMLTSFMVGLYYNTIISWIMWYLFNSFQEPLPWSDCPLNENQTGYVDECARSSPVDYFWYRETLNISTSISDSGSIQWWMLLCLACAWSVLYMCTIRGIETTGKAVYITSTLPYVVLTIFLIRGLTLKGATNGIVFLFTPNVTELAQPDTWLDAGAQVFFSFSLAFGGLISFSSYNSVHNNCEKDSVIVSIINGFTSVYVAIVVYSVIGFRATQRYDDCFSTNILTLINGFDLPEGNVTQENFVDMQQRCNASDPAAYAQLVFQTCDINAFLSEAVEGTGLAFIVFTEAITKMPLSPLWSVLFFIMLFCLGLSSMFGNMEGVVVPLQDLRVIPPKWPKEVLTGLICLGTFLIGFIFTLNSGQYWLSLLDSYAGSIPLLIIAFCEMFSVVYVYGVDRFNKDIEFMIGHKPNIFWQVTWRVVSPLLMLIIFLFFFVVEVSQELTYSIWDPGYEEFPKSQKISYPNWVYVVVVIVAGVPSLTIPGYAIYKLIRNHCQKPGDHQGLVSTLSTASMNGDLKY

Compared with `CN1[C@@H]2CC[C@H]1CN(C(=O)CNC(=O)/C=C/c1ccc(C(F)(F)F)cc1)C2` [I-122], `CN1CCCN(C(=O)CNC(=O)/C=C/c2ccc(C(F)(F)F)cc2)CC1` [I-3] is 16-fold lower in IC50: 0.64 µM for the first, 0.04 µM for the second.

`COCCN(Cc1noc(C)n1)C(=O)CNC(=O)/C=C/c1ccc(C(F)(F)F)cc1` [I-52] and `COCCN(Cc1ncc(C)s1)C(=O)CNC(=O)/C=C/c1ccc(C(F)(F)F)cc1` [I-56] are within 1.5-fold of each other in IC50: 0.056 µM for the first, 0.067 µM for the second.

First: O=C(/C=C/c1ccc(C(F)(F)F)cc1)NCC(=O)N1Cc2cccnc2C1 [I-65]
Second: Cn1cc2c(n1)CN(C(=O)CNC(=O)/C=C/c1ccc(C(F)(F)F)cc1)C2 [I-70]
The IC50 of the first is 1.9-fold lower: 0.07 µM for the first, 0.136 µM for the second. The first is the more potent here.

Going from `CNC(=O)[C@H]1CCN(C(=O)CNC(=O)/C=C/c2ccc(C(F)(F)F)cc2)C1` [I-144, (3S)-N-methyl-1-[2-[[(E)-3-[4-(trifluoromethyl)phenyl]prop-2-enoyl]amino]acetyl]pyrrolidine-3-carboxamide] to `O=C(/C=C/c1ccc(C(F)(F)F)cc1)NCC(=O)N1CC[C@H](C(=O)O)C1` [I-125, (3S)-1-[2-[[(E)-3-[4-(trifluoromethyl)phenyl]prop-2-enoyl]amino]acetyl]pyrrolidine-3-carboxylic acid], the IC50 rises from 0.261 µM to 1.62 µM (6.2-fold).

First: Cc1noc([C@@H]2CCN(C(=O)CNC(=O)/C=C/c3ccc(C(F)(F)F)cc3)C2)n1 [I-69]
Second: CC(=O)N[C@H]1CCN(C(=O)CNC(=O)/C=C/c2ccc(C(F)(F)F)cc2)C1 [I-143, (E)-N-[2-[(3S)-3-acetamidopyrrolidin-1-yl]-2-oxoethyl]-3-[4-(trifluoromethyl)phenyl]prop-2-enamide]
The IC50 of the first is 2.7-fold higher: 1.47 µM for the first, 0.55 µM for the second. The second is the more potent here.

First: O=C(/C=C/c1ccc(C(F)(F)F)cc1)NCC(=O)N1CCn2ncc(C(=O)N3CCCC3)c2C1 [I-222]
Second: O=C(/C=C/c1ccc(C(F)(F)F)cc1)NCC(=O)N1CCn2ncc(C(=O)O)c2C1 [I-274]
The IC50 of the first is 16-fold lower: 0.033 µM for the first, 0.531 µM for the second.

`COCCN(Cc1ccccn1)C(=O)CNC(=O)/C=C/c1ccc(C(F)(F)F)cc1` [I-50] and `COCCN(Cc1cnccn1)C(=O)CNC(=O)/C=C/c1ccc(C(F)(F)F)cc1` [I-175] are within 1.5-fold of each other in IC50: 0.081 µM for the first, 0.071 µM for the second.

Going from `O=C(/C=C/c1ccc(C(F)(F)F)cc1)NCC(=O)N1CCc2nccn2CC1` [I-64] to `O=C(/C=C/c1ccc(C(F)(F)F)cc1)NCC(=O)N1CCCn2ncnc2C1` [I-72], the IC50 rises from 0.195 µM to 0.317 µM (1.6-fold).

`COCCN(C)C(=O)CN(CCOC)C(=O)CNC(=O)/C=C/c1ccc(C(F)(F)F)cc1` [I-147, (E)-N-[2-[2-methoxyethyl-[2-[2-methoxyethyl(methyl)amino]-2-oxoethyl]amino]-2-oxoethyl]-3-[4-(trifluoromethyl)phenyl]prop-2-enamide] and `COCCN(C(=O)CNC(=O)/C=C/c1ccc(C(F)(F)F)cc1)C(C)COC` (stereo not drawn) [I-11] are within 1.5-fold of each other in IC50: 0.298 µM for the first, 0.282 µM for the second.

`CNC(=O)[C@@H]1C[C@H](n2cccn2)CN1C(=O)CNC(=O)/C=C/c1ccc(C(F)(F)F)cc1` [I-216] and `O=C(/C=C/c1ccc(C(F)(F)F)cc1)NCC(=O)N1CC[C@H](n2cccn2)C1` [I-176] are within 1.5-fold of each other in IC50: 0.161 µM for the first, 0.185 µM for the second.

`Cn1nnc2c1CCN(C(=O)CNC(=O)/C=C/c1ccc(C(F)(F)F)cc1)C2` [I-100] and `Cn1ncc2c1CCN(C(=O)CNC(=O)/C=C/c1ccc(C(F)(F)F)cc1)C2` [I-77] are within 1.5-fold of each other in IC50: 0.079 µM for the first, 0.07 µM for the second.

`CNC(=O)c1cc2n(n1)CCN(C(=O)CNC(=O)/C=C/c1ccc(C(F)(F)F)cc1)C2` [I-203] and `CC(O)c1cc2n(n1)CCN(C(=O)CNC(=O)/C=C/c1ccc(C(F)(F)F)cc1)C2` (stereo not drawn) [I-208] are within 1.5-fold of each other in IC50: 0.045 µM for the first, 0.05 µM for the second.

Going from `O=C(/C=C/c1ccc(C(F)(F)F)cc1)NCC(=O)N1CCc2ccc(Br)cc2C1` [I-195] to `N#Cc1cccc2c1CCN(C(=O)CNC(=O)/C=C/c1ccc(C(F)(F)F)cc1)C2` [I-192], the IC50 falls from 0.054 µM to 0.03 µM (1.8-fold).

First: COCCN(CC1CCCO1)C(=O)CNC(=O)/C=C/c1ccc(C(F)(F)F)cc1 (stereo not drawn) [I-48]
Second: CN(CCS(C)(=O)=O)C(=O)CNC(=O)/C=C/c1ccc(C(F)(F)F)cc1 [I-46]
The IC50 of the first is 3-fold higher: 0.536 µM for the first, 0.181 µM for the second.

First: O=C(/C=C/c1ccc(C(F)(F)F)cc1)NCC(=O)N1CNC(=O)C1 [I-31]
Second: CN1CCN(C(=O)CNC(=O)/C=C/c2ccc(C(F)(F)F)cc2)CC1=O [I-17]
The IC50 of the first is 1.8-fold lower: 0.106 µM for the first, 0.195 µM for the second.

Going from `O=C(/C=C/c1ccc(C(F)(F)F)cc1)NCC(=O)N1CCn2nc(CO)cc2C1` [I-173, (E)-N-[2-[2-(hydroxymethyl)-6,7-dihydro-4H-pyrazolo[1,5-a]pyrazin-5-yl]-2-oxo-ethyl]-3-[4-(trifluoromethyl)phenyl]prop-2-enamide] to `CC(C)(O)c1cc2n(n1)CCN(C(=O)CNC(=O)/C=C/c1ccc(C(F)(F)F)cc1)C2` [I-129, (E)-N-[2-[2-(1-hydroxy-1-methylethyl)-6,7-dihydro-4H-pyrazolo [1,5-a]pyrazin-5-yl]-2-oxoethyl]-3-[4-(trifluoromethyl)phenyl]prop-2-enamide], the IC50 rises from 0.03 µM to 0.066 µM (2.2-fold).

Compared with `O=C(/C=C/c1ccc(C(F)(F)F)cc1)NCC(=O)N1CCc2cc(C(=O)O)ncc2C1` [I-264], `COc1cc2c(cn1)CN(C(=O)CNC(=O)/C=C/c1ccc(C(F)(F)F)cc1)CC2` [I-92] is 2.8-fold lower in IC50: 0.055 µM for the first, 0.02 µM for the second. The second is the more potent here.

Compared with `O=C(/C=C/c1ccc(C(F)(F)F)cc1)NCC(=O)N1CCc2nc(C(=O)O)ccc2C1` [I-263], `O=C(/C=C/c1ccc(C(F)(F)F)cc1)NCC(=O)N1CCc2c(cccc2C(=O)O)C1` [I-271] is 3.5-fold higher in IC50: 0.2 µM for the first, 0.699 µM for the second. The first is the more potent here.

Going from `C[C@@H]1c2ncnn2CCN1C(=O)CNC(=O)/C=C/c1ccc(C(F)(F)F)cc1` [I-204] to `O=C(/C=C/c1ccc(C(F)(F)F)cc1)NCC(=O)N1CCn2ncnc2C12CC2` [I-207], the IC50 falls from 0.819 µM to 0.324 µM (2.5-fold).

Compared with `O=C(/C=C/c1ccc(C(F)(F)F)cc1)NCC(=O)N1Cc2nc[nH]c2C1` [I-63], `O=C(/C=C/c1ccc(C(F)(F)F)cc1)NCC(=O)N1CCc2ncsc2C1` [I-34] is 7.8-fold lower in IC50: 0.164 µM for the first, 0.021 µM for the second. The second is the more potent here.

`O=C(/C=C/c1ccc(C(F)(F)F)cc1)NCC(=O)N1CC(=O)NC(c2ccccc2)C1` (single isomer, unassigned) [I-136, (E)-N-[2-oxo-2-[3-oxo-5-phenylpiperazin-1-yl]ethyl]-3-[4-(trifluoromethyl)phenyl]prop-2-enamide] and `CN1CCN(C(=O)CNC(=O)/C=C/c2ccc(C(F)(F)F)cc2)CC1c1ccccc1` (stereo not drawn) [I-13] are within 1.5-fold of each other in IC50: 0.087 µM for the first, 0.111 µM for the second.

`COc1nccc2c1CN(C(=O)CNC(=O)/C=C/c1ccc(C(F)(F)F)cc1)CC2` [I-91] and `COc1ccc2c(n1)CN(C(=O)CNC(=O)/C=C/c1ccc(C(F)(F)F)cc1)CC2` [I-94] are within 1.5-fold of each other in IC50: 0.036 µM for the first, 0.04 µM for the second.

Compared with `O=C(/C=C/c1ccc(OC(F)F)cc1)NCC(=O)N1CCn2nccc2C1` [I-89], `O=C(/C=C/c1ccc(C(F)(F)F)cc1)NCC(=O)N1CCn2nncc2C1` [I-80] is 2.2-fold lower in IC50: 0.094 µM for the first, 0.042 µM for the second.

`O=C(/C=C/c1ccc(C(F)(F)F)cc1)NCC(=O)N1CCS(=O)(=O)CC1` [I-9] and `CCNC(=O)N1CCN(C(=O)CNC(=O)/C=C/c2ccc(C(F)(F)F)cc2)CC1` [I-134, N-ethyl-4-[2-[[(E)-3-[4-(trifluoromethyl)phenyl]prop-2-enoyl]amino]acetyl]piperazine-1-carboxamide] are within 1.5-fold of each other in IC50: 1.59 µM for the first, 1.24 µM for the second.

First: N#Cc1cnn2c1CN(C(=O)CNC(=O)/C=C/c1ccc(C(F)(F)F)cc1)CC2 [I-190]
Second: CNC(=O)c1cnn2c1CN(C(=O)CNC(=O)/C=C/c1ccc(C(F)(F)F)cc1)CC2 [I-225]
The IC50 of the first is 2.1-fold lower: 0.021 µM for the first, 0.044 µM for the second.

First: O=C(/C=C/c1ccc(C(F)(F)F)cc1)NCC(=O)N1CCn2nccc21 [I-180]
Second: C[C@H]1Cn2nccc2CN1C(=O)CNC(=O)/C=C/c1ccc(C(F)(F)F)cc1 [I-181]
The IC50 of the first is 3-fold lower: 0.02 µM for the first, 0.06 µM for the second. The first is the more potent here.

Compared with `O=C(/C=C/c1ccc(C(F)(F)F)cc1)NCC(=O)N1CC[C@@H](Cn2cccn2)C1` [I-214], `O=C(/C=C/c1ccc(C(F)(F)F)cc1)NCC(=O)N1CC[C@H](Cn2cccn2)C1` [I-213] is 6.7-fold lower in IC50: 0.728 µM for the first, 0.108 µM for the second.

`O=C(/C=C/c1ccc(C(F)(F)F)cc1)NCC(=O)N1CCc2nnccc2C1` [I-99] and `O=C(/C=C/c1ccc(C(F)(F)F)cc1)NCC(=O)N1CCc2[nH]ncc2C1` [I-76] are within 1.5-fold of each other in IC50: 0.064 µM for the first, 0.053 µM for the second.

`Cn1cnc2c1CN(C(=O)CNC(=O)/C=C/c1ccc(C(F)(F)F)cc1)CC2` [I-40] and `CC1CN(C)CCN1C(=O)CNC(=O)/C=C/c1ccc(C(F)(F)F)cc1` (stereo not drawn) [I-119, (E)-N-[2-(2,4-dimethylpiperazin-1-yl)-2-oxoethyl]-3-[4-(trifluoromethyl)phenyl]prop-2-enamide] are within 1.5-fold of each other in IC50: 0.029 µM for the first, 0.03 µM for the second.

First: CCc1nnc(CN(CC2(F)CC2)C(=O)CNC(=O)/C=C/c2ccc(C(F)(F)F)cc2)o1 [I-211]
Second: COCC(C)N(Cc1nnc(C)o1)C(=O)CNC(=O)/C=C/c1ccc(C(F)(F)F)cc1 (stereo not drawn) [I-210]
The IC50 of the first is 2.7-fold lower: 0.061 µM for the first, 0.165 µM for the second.

`CC(C)c1ccc(/C=C/C(=O)NCC(=O)N2CCN(C)CC2)cc1` [I-106] and `CCOc1ccc(/C=C/C(=O)NCC(=O)N2CCN(C)CC2)cc1` [I-117] are within 1.5-fold of each other in IC50: 0.276 µM for the first, 0.199 µM for the second.

Going from `CN1CCN(C(=O)CNC(=O)/C=C/c2ccc(-c3ccc(C(F)(F)F)cc3)cc2)CC1` [I-128] to `O=C(/C=C/c1ccc(C(F)(F)F)cc1)NCC(=O)N1CCn2nc(C(=O)O)c(-c3ccc(F)cc3)c2C1` [I-267], the IC50 falls from 0.678 µM to 0.083 µM (8.2-fold).

Compared with `Cc1nnc([C@H]2CN(C)CCN2C(=O)CNC(=O)/C=C/c2ccc(C(F)(F)F)cc2)o1` [I-121], `O=C(/C=C/c1ccc(C(F)(F)F)cc1)NCC(=O)N1CCn2nc(C(=O)O)c(C3CCCCC3)c2C1` [I-266] is 1.6-fold higher in IC50: 0.081 µM for the first, 0.133 µM for the second. The first is the more potent here.
